Reference: patent US11136317B2, “NADPH oxidase 4 inhibitors” (ACTELION PHARMACEUTICALS LTD, priority 2015, dated 2021)

Target: T1, human NOX4 (Homo sapiens, UniProt Q9NPH5)
T1 construct: The full-length human NOX4 (NM_016931.3) transcript was cloned; expressed in transfected cells
T1 sequence (Q9NPH5 1-578): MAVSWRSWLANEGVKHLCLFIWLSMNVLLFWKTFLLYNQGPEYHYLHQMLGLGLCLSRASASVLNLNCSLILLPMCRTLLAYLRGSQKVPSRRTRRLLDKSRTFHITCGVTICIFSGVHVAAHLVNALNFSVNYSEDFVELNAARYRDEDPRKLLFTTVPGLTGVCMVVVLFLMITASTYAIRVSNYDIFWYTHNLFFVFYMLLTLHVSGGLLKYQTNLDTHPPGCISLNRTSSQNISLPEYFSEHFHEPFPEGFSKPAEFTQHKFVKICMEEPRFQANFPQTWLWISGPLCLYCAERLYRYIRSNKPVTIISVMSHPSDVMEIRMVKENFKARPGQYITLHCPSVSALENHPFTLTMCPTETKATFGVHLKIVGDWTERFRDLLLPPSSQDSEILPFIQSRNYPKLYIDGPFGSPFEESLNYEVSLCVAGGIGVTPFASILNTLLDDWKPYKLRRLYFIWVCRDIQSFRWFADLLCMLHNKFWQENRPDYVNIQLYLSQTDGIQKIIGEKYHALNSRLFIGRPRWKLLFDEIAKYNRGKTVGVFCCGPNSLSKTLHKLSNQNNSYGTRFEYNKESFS
T1 sequence (P13498 1-195 partner): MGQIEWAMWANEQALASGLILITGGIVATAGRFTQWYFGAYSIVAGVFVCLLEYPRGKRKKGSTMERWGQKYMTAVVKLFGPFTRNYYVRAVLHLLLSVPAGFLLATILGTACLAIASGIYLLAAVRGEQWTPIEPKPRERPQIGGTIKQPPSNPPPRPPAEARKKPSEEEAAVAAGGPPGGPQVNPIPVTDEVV
Assay: Amplex Red activity assay (cellular H2O2 formation in hNOX4 T-REx-293 cells)
Assay type: cell-based
Conditions: tet-induced 24 h, extracellular H2O2 by Amplex Red, 60 min 25° C., geometric mean if determined several times
Summary of the method: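 Tet-induced (1 μg/mL, 24 h) HEK293 T-REx cells stably expressing full-length human NOX4, 20 000 cells/well, exposed to compounds (10 concentrations, 50 μM to 100 nM; 1.25% DMSO) for 60 min at 25°C. Extracellular H2O2 detected by Amplex Red resorufin fluorescence (ex 550/em 600 nm) versus vehicle; IC50 calculated.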

Structure (SMILES)	IC50 [µM]
O=C(Nc1ccc2sc(N3CCCCC3)nc2c1)c1ccc2c(c1)CCO2 [Example 81, 2,3-Dihydro-benzofuran-5-carboxylic acid (2-piperidin-1-yl-benzothiazol-5-yl)-amide]	2.45
CN1CCN(c2nc3cc(NC(=O)c4ccc5c(c4)CCO5)ccc3s2)CC1 [Example 83, 2,3-Dihydro-benzofuran-5-carboxylic acid [2-(4-methyl-piperazin-1-yl)-benzothiazol-5-yl]-amide]	3.54
O=C(Nc1ccc2sc(N3CCCC3)nc2c1)c1ccc2c(c1)CCO2 [Example 84, 2,3-Dihydro-benzofuran-5-carboxylic acid (2-pyrrolidin-1-yl-benzothiazol-5-yl)-amide]	1.32
O=C(Nc1ccc2sc(N3CC(F)(F)C3)nc2c1)c1ccc2c(c1)CCO2 [Example 87, 2,3-Dihydro-benzofuran-5-carboxylic acid [2-(3,3-difluoro-azetidin-1-yl)-benzothiazol-5-yl]-amide]	4.1
O=C(Nc1ccc2sc(N3CCC34COC4)nc2c1)c1ccc2c(c1)CCO2 [Example 90, 2,3-Dihydro-benzofuran-5-carboxylic acid [2-(6-oxa-1-aza-spiro[3.3]hept-1-yl)-benzothiazol-5-yl]-amide]	0.361
CN(C)CCN(C)c1nc2cc(NC(=O)c3ccc4c(c3)CCO4)ccc2s1 [Example 93, 2,3-Dihydro-benzofuran-5-carboxylic acid {2-[(2-dimethylamino-ethyl)-methyl-amino]-benzothiazol-5-yl}-amide]	10.3
COC1CCN(c2nc3cc(NC(=O)c4ccc5c(c4)CCO5)ccc3s2)C1 (centres unmarked) [Example 94, 2,3-Dihydro-benzofuran-5-carboxylic acid [2-(3-methoxy-pyrrolidin-1-yl)-benzothiazol-5-yl]-amide]	3.29
COC1CCN(c2nc3cc(NC(=O)c4ccc5c(c4)CCO5)ccc3s2)CC1 [Example 95, 2,3-Dihydro-benzofuran-5-carboxylic acid [2-(4-methoxy-piperidin-1-yl)-benzothiazol-5-yl]-amide]	2.14
CC1(O)CN(c2nc3cc(NC(=O)c4ccc5c(c4)CCO5)ccc3s2)C1 [Example 96, 2,3-Dihydro-benzofuran-5-carboxylic acid [2-(3-hydroxy-3-methyl-azetidin-1-yl)-benzothiazol-5-yl]-amide]	2.67
CN(C)C1CCN(c2nc3cc(NC(=O)c4ccc5c(c4)CCO5)ccc3s2)CC1 [Example 97, 2,3-Dihydro-benzofuran-5-carboxylic acid [2-(4-dimethylamino-piperidin-1-yl)-benzothiazol-5-yl]-amide]	6.3
O=C(Nc1ccc2sc(N3CC[C@H](O)C3)nc2c1)c1ccc2c(c1)CCO2 [Example 98, (S)—N-(2-(3-hydroxypyrrolidin-1-yl)benzo[d]thiazol-5-yl)-2,3-dihydrobenzofuran-5-carboxamide]	2.53
CN(c1nc2cc(NC(=O)c3ccc4c(c3)CCO4)ccc2s1)C1CCN(C2COC2)CC1 [Example 100, 2,3-Dihydro-benzofuran-5-carboxylic acid {2-[methyl-(1-oxetan-3-yl-piperidin-4-yl)-amino]-benzothiazol-5-yl}-amide]	3.39
O=C(Nc1ccc2sc(N3CCCC4(COC4)C3)nc2c1)c1ccc2c(c1)CCO2 [Example 101, 2,3-Dihydro-benzofuran-5-carboxylic acid [2-(2-oxa-6-aza-spiro[3.5]non-6-yl)-benzothiazol-5-yl]-amide]	2.37
CN(c1nc2cc(NC(=O)c3ccc4c(c3)CCO4)ccc2s1)C1COC1 [Example 103, 2,3-Dihydro-benzofuran-5-carboxylic acid [2-(methyl-oxetan-3-yl-amino)-benzothiazol-5-yl]-amide]	3.21
CN(C)CC1CCN(c2nc3cc(NC(=O)c4ccc5c(c4)CCO5)ccc3s2)C1 (centres unmarked) [Example 105, 2,3-Dihydro-benzofuran-5-carboxylic acid [2-(3-dimethylaminomethyl-pyrrolidin-1-yl)-benzothiazol-5-yl]-amide]	14.8
CC(C)OC1CN(c2nc3cc(NC(=O)c4ccc5c(c4)CCO5)ccc3s2)C1 [Example 106, 2,3-Dihydro-benzofuran-5-carboxylic acid [2-(3-isopropoxy-azetidin-1-yl)-benzothiazol-5-yl]-amide]	9.39
O=C(Nc1ccc2sc(N3CCC(O)CC3)nc2c1)c1ccc2c(c1)CCO2 [Example 110, 2,3-Dihydro-benzofuran-5-carboxylic acid [2-(4-hydroxy-piperidin-1-yl)-benzothiazol-5-yl]-amide]	2.03
COCC1CCCN1c1nc2cc(NC(=O)c3ccc4c(c3)CCO4)ccc2s1 (centres unmarked) [Example 113, 2,3-Dihydro-benzofuran-5-carboxylic acid [2-(2-methoxymethyl-pyrrolidin-1-yl)-benzothiazol-5-yl]-amide]	3.25
O=C(Nc1ccc2sc(N3CCC[C@H](O)C3)nc2c1)c1ccc2c(c1)CCO2 [Example 114, 2,3-Dihydro-benzofuran-5-carboxylic acid [2-((S)-3-hydroxy-piperidin-1-yl)-benzothiazol-5-yl]-amide]	2.94

More lines, in order of falling IC50, values ahead:

IC50 [µM]	Structure (SMILES)
9.51	CCOCC1CCCN1c1nc2cc(NC(=O)c3ccc4c(c3)CCO4)ccc2s1 (centres unmarked) [Example 107, 2,3-Dihydro-benzofuran-5-carboxylic acid [2-(2-ethoxymethyl-pyrrolidin-1-yl)-benzothiazol-5-yl]-amide]
9.17	O=C(Nc1ccc2sc(N3CCN(C4COC4)CC3)nc2c1)c1ccc2c(c1)CCO2 [Example 102, 2,3-Dihydro-benzofuran-5-carboxylic acid [2-(4-oxetan-3-yl-piperazin-1-yl)-benzothiazol-5-yl]-amide]
6.87	O=C(Nc1ccc2sc(N3CC4(CCO4)C3)nc2c1)c1ccc2c(c1)CCO2 [Example 104, 2,3-Dihydro-benzofuran-5-carboxylic acid [2-(1-oxa-6-aza-spiro[3.3]hept-6-yl)-benzothiazol-5-yl]-amide]
4.33	O=C(Nc1ccc2sc(N3CC4(COC4)C3)nc2c1)c1ccc2c(c1)CCO2 [Example 91, 2,3-Dihydro-benzofuran-5-carboxylic acid [2-(2-oxa-6-aza-spiro[3.3]hept-6-yl)-benzothiazol-5-yl]-amide]
3.66	O=C(Nc1ccc2sc(N3CCC(F)(F)C3)nc2c1)c1ccc2c(c1)CCO2 [Example 88, 2,3-Dihydro-benzofuran-5-carboxylic acid [2-(3,3-difluoro-pyrrolidin-1-yl)-benzothiazol-5-yl]-amide]
3.08	O=C(Nc1ccc2sc(N3CCC4(CC3)COC4)nc2c1)c1ccc2c(c1)CCO2 [Example 99, 2,3-Dihydro-benzofuran-5-carboxylic acid [2-(2-oxa-7-aza-spiro[3.5]non-7-yl)-benzothiazol-5-yl]-amide]
2.54	COC1CCCN(c2nc3cc(NC(=O)c4ccc5c(c4)CCO5)ccc3s2)C1 (centres unmarked) [Example 108, 2,3-Dihydro-benzofuran-5-carboxylic acid [2-(3-methoxy-piperidin-1-yl)-benzothiazol-5-yl]-amide]
2.46	O=C(Nc1ccc2sc(N3CCS(=O)(=O)CC3)nc2c1)c1ccc2c(c1)CCO2 [Example 92, 2,3-Dihydro-benzofuran-5-carboxylic acid [2-(1,1-dioxo-1l6-thiomorpholin-4-yl)-benzothiazol-5-yl]-amide]
2.35	O=C(Nc1ccc2sc(N3CCOCC3)nc2c1)c1ccc2c(c1)CCO2 [Example 82, 2,3-Dihydro-benzofuran-5-carboxylic acid (2-morpholin-4-yl-benzothiazol-5-yl)-amide]
2.27	O=C(Nc1ccc2sc(N3CC[C@@H](O)C3)nc2c1)c1ccc2c(c1)CCO2 [Example 112, 2,3-Dihydro-benzofuran-5-carboxylic acid [2-((R)-3-hydroxy-pyrrolidin-1-yl)-benzothiazol-5-yl]-amide]
1.92	O=C(Nc1ccc2sc(N3CCCC(F)(F)C3)nc2c1)c1ccc2c(c1)CCO2 [Example 89, 2,3-Dihydro-benzofuran-5-carboxylic acid [2-(3,3-difluoro-piperidin-1-yl)-benzothiazol-5-yl]-amide]
1.78	O=C(Nc1ccc2sc(N3CC(O)C3)nc2c1)c1ccc2c(c1)CCO2 [Example 109, 2,3-Dihydro-benzofuran-5-carboxylic acid [2-(3-hydroxy-azetidin-1-yl)-benzothiazol-5-yl]-amide]
1.65	CCN(CC)c1nc2cc(NC(=O)c3ccc4c(c3)CCO4)ccc2s1 [Example 85, 2,3-Dihydro-benzofuran-5-carboxylic acid (2-diethylamino-benzothiazol-5-yl)-amide]
